Measurements as given in patent US20070123580A1, “Combination of histone deacetylase inhibitors with chemotherapeutic agents” (priority 2003, published 2007).
“Also recorded” adds a separate entry of the source.

Tests used:
[1] = system: HCT116 cells; experiment: MTS monolayer proliferation assay, drug combinations analysed with CalcuSyn; type: cell-based, human
Excerpt: (§1) MTS (which is 3-(4,5 Dimethylthiazol-2-yl)-5-(3-carboxyphenyl)-2-(4-sulfophenyl)-2H-tetrazolium, inner salt) assays are used to assess the antiproliferative effects of the drug combinations. The HCT116 and MDA-MB-435P tumor cell lines, previously characterized as sensitive to HDA inhibitors, are chosen for these experiments along with clinically relevant chemotherapeutic drugs. A commercial program, “CalcuSyn”, is employed to determine whether the combined effects are synergistic, antagonistic or additive.
Two cell lines, the HCT116 human colon carcinoma cells and MDA-MB-435P, a hormone independent breast carcinoma cell line, are chosen based on their sensitivity to HDAI. Chemotherapeutic agents are paired with the cell lines based on their clinical relevance. […]
(§2) Experiments are done using five-point or six-point drug titrations in 96-well tissue culture plates, with the top row left empty. […] The plate is incubated at 37° C. for 4 hours and the OD is measured on a Molecular Devices Thermomax at 490 nm using the Softmax program. […]
(§3) The plates are incubated at 37° C. for 72 hours from seeding. The MTS solution is added (as for the T0 plate) and read four hours later. […]
(§4) Using the CalcuSyn program, the Combination Index (CI) is determined by the isobologram equation CI=(D)1/(Dx)1+(D)2/(Dx)2. […]

[2] = system: A549 lung carcinoma xenograft; experiment: A549 lung carcinoma xenograft model; type: in vivo; conditions: single daily intravenous doses 10 to 100 mg/kg
[3] = system: HCT116 colon carcinoma xenograft; experiment: HCT116 colon carcinoma xenograft model; type: in vivo, athymic mice; conditions: single daily intravenous doses 10 to 100 mg/kg
[4] = system: MDA-M B-435P breast carcinoma xenograft; experiment: MDA-MB-435P breast carcinoma xenograft model; type: in vivo; conditions: MDA-MB-435P breast xenograft; single daily intravenous doses 10 to 100 mg/kg
[5] = system: acetylated histone H3 and H4; experiment: Acetylated histone levels in HCT116 human tumor xenografts; conditions: in vivo, HCT116 human tumor xenografts from athymic mice
Excerpt: The compound also increases acetylated histone H3 and H4 levels in vivo, in HCT116 human tumor xenografts from athymic mice. In this example, the effects of combining N-hydroxy-3-[4-[[(2-hydroxyethyl)[2-(1H-indol-3-yl)ethyl]-amino]methyl]phenyl]-2E-2-propenamide with standard therapeutics or with other experimental drugs on monolayer proliferation of tumor cell lines are investigated.

[6] = system: cell growth; experiment: Inhibition of cell growth in vitro; type: cell-based; conditions: single agent
[7] = system: MDA-MB-435P cells; experiment: MTS monolayer proliferation assay, drug combinations analysed with CalcuSyn; type: cell-based, human; conditions: in combination with adriamycin
Excerpt: as §1
(§5) Two cell lines, the HCT116 human colon carcinoma cells and MDA-MB-435P, a hormone independent breast carcinoma cell line, are chosen based on their sensitivity to HDAI. Chemotherapeutic agents are paired with the cell lines based on their clinical relevance. The compounds tested in combination with N-hydroxy-3-[4-[[(2-hydroxyethyl)[2-(1H-indol-3-yl)ethyl]-amino]methyl]phenyl]-2E-2-propenamide include adriamycin which is clinically used in the treatment of breast cancer, 5-fluoruracil (5-FU), and camptothecin, used clinically for colon cancer. Due to the reported cross-talk between histone deacetylases and DNA methyl transferases, 5-azacytidine, a DNA methyltransferase inhibitor, is also tested.
Human breast carcinoma cells, MDA-MB-435P are cultured as previously described in the reference above. Cell proliferation is measured using an adaptation of published procedures essentially as described, in Zhang R D, Fidler I J, Price J E, “Relative malignant potential of human breast carcinoma cell lines established from pleural effusions and a brain metastasis”, Invasion-Metastasis 1991; 11 :204-15.
Experiments are done using five-point or six-point drug titrations in 96-well tissue culture plates, with the top row left empty. HCT116 and MDA-MB-435P cells are suspended in complete media at a density of 3.6×10^3 and 2.1×10^4 cell/ml, respectively, and 190 μl are added per well. Complete medium (200 μl) is added to the top row. 24 hours later, after the cells have attached to the bottom of the plate, 10 μl of MTS solution are added to one of the plates to determine the activity at the time of compound addition (T0). The plate is incubated at 37° C. for 4 hours and the OD is measured on a Molecular Devices Thermomax at 490 nm using the Softmax program. The T0 plate serves as a reference for initial activity at the beginning of the experiment. Compound addition begins 24 hours after seeding, the same time as the T0 determination. […] One cell line is tested with four compounds or combinations per plate. 10 microliters of each of the six dilutions are added in triplicate and complete medium is added to the bottom row. The compounds are added to the plates singly or in combination with N-hydroxy-3-[4-[[(2-hydroxyethyl)[2-(1H-indol-3-yl)ethyl]-amino]methyl]phenyl]-2E-2-propenamide. In pretreated combinations, the drugs are added simultaneously, 24 hr prior, or 24 hr after N-hydroxy-3-[4-[[(2-hydroxyethyl)[2-(1H-indol-3-yl)ethyl]-amino]methyl]phenyl]-2E-2-propenamide. As controls for pretreatment, new dilutions are added to untreated cells singly or in combination 48 hours after seeding.
The plates are incubated at 37° C. for 72 hours from seeding. The MTS solution is added (as for the T0 plate) and read four hours later. In order to analyze the data, the average value of media alone (background) is subtracted from each experimental well and the triplicate values are averaged for each compound dilution. The following formulas are used to calculate percent growth.
The “% Growth” is plotted against compound concentration and used to calculate IC50s employing the user-defined spline function in Microsoft Excel. This function uses linear regression between data points to predict the concentration of compounds at 50% inhibition. IC50s are used to determine the dose range for each compound and the resultant combinations.
as §4

[8] = system: tumor cell lines; experiment: MTS monolayer proliferation assay, combination with 5-azacytidine (cell line not stated); type: cell-based; conditions: in combination with 5-azacytidine
Excerpt: as §1, §5
as §2, with “empty. HCT116 and MDA-MB-435P cells are suspended in complete media at a density of 3.6×10^3 and 2.1×10^4 cell/ml, respectively, and 190 μl are added per well. Complete medium (200 μl) is added to the top row.” for “empty.”
as §3
Using the CalcuSyn program, the Combination Index (CI) is determined by the isobologram equation CI=(D)1/(Dx)1+(D)2/(Dx)2. […] For each compound the % growth values at each dose as determined in the MTS assay is used. […]

[9] = system: HCT116 cells; experiment: Apoptosis in HCT116 cells; type: cell-based, human; conditions: single agent, sub micromolar levels, 48 to 72 hours of exposure
[10] = system: normal dermal fibroblasts; experiment: Effect on normal dermal fibroblasts; type: cell-based; conditions: single agent; compared with HCT116 cells
[11] = system: p21 promoter; experiment: Transcriptional activation of the p21 promoter; type: cell-based; conditions: single agent; sub-micromolar concentrations
[12] = system: histone acetylation (intracellular HDA); experiment: Histone acetylation in cells treated in culture; type: cell-based, human
[13] = HDAI added 24 hr prior to adriamycin
[14] = adriamycin added 24 hr prior to HDAI

SMILES: O=C(/C=C/c1ccc(CN(CCO)CCc2c[nH]c3ccccc23)cc1)NO [N-hydroxy-3-[4-[[(2-hydroxyethyl)[2-(1H-indol-3-yl)ethyl]-amino]methyl]phenyl]-2E-2-propenamide]
- combined antiproliferative effect (isobologram / combination index) ([1]; in combination with 5-FU): mainly additive effects; also recorded: additive or weak antagonistic effects
- combined antiproliferative effect (combination index) ([1]; in combination with camptothecin): mainly additive effects; also recorded: additive or weak antagonism; also recorded: additive or weak antagonistic effects
- tumor growth [2]: reproducibly inhibits tumor growth
- tumor growth [3]: reproducibly inhibits tumor growth
- tumor growth [4]: reproducibly inhibits tumor growth
- acetylated histone H3 levels [5]: increases
- acetylated histone H4 levels [5]: increases
- concentration inhibiting cell growth [6]: sub-micromolar concentrations
- combination index [7, 13]: ~1
- combined antiproliferative effect (isobologram / combination index) [7, 13]: additive effects
- combination index [7, 14]: < 0.1
- combined antiproliferative effect (isobologram / combination index) [7, 14]: synergistic effects; also recorded: strong synergy; also recorded: very strong synergy
- combination index ([7]; simultaneous addition): ~1
- combined antiproliferative effect (isobologram / combination index) ([7]; simultaneous addition): additive effects
- combined antiproliferative effect ([8]; all drug addition schedules): mainly additive effects; also recorded: concentration-dependent effects
- combined antiproliferative effect ([8]; high inhibitory concentrations (IC50)): additive effects
- combined antiproliferative effect ([8]; low inhibitory concentrations (IC25)): antagonistic effects
- apoptosis [9]: produces apoptosis
- cellular response of normal dermal fibroblasts [10]: predominantly undergo cell-cycle arrest
- reduction of viability of normal dermal fibroblasts [10]: much higher concentrations and longer times of exposure are required
- p21 promoter activation [11]: transcriptionally activates the p21 promoter
- levels of histone acetylation ([12]; HCT116 cells treated in culture continuously for 3 to 24 hr): Increased levels of histone acetylation
- histone acetylation ([12]; single agent, sub-micromolar concentrations, cells not given): increases histone acetylation
